Measurements reported in a melting point compilation (Tetko et al.; mined from patent text by program, amines drawn as free bases though some values may be those of a salt).

| Structure (SMILES) | melting point |
| --- | --- |
| CC(C)Nc1nc2c(Cl)c(Cl)c(Cl)cc2n1[C@H]1O[C@@H](CO)[C@H](O)[C@@H]1O | 223 to 224 °C |
| COc1ccc2c(Cl)nncc2c1 | 181 to 183 °C |
| COC(=O)c1nc(CCl)n(-c2ccc(Cl)cc2C(=O)c2ccccc2Cl)n1 | 130 to 132 °C |
| COC(=O)c1cc(I)cnc1Cl | 49 to 50 °C |
| O=C(O)C1CCCn2c(=O)n(CS)c(=O)n21 (centres undefined) | 158 °C |
| Cc1c(C(=O)O)sc2c(Br)csc12 | 280 to 282 °C |
| CCCCCC(CC(=O)Nc1cc(CCC(N)=O)ccc1C(C)(C)C)c1ccc(OC)cc1OC (centres undefined) | 113 to 114 °C |
| N#Cc1sc(N)c(C#N)c1N1CCCCC1 | 183 to 184 °C |
| COC(=O)c1cc2c(cc1O)OCO2 | 100 to 101 °C |
| CCCCCCCCCCCCNC(=O)COc1ccc(O)cc1[N+](=O)[O-] | 150 to 151 °C |
| O=c1[nH]c(F)c(Cl)c(Cl)c1Cl | 172 to 176 °C |
| CN1Cc2c(C(N)=O)ncn2-c2ccc(F)c(Cl)c2C1=O | 292 to 294 °C |
| COc1cc(N)c(Cl)cc1C(=O)NCCC1CN(Cc2ccc(C#N)cc2)CCO1 (centres undefined) | 180 to 182 °C |
| COC(=O)[C@H](CCC(=O)O)N1C(=O)c2ccccc2C1=O | 137 to 138 °C |
| Cc1c(NC(=O)c2ccc(OC[C@@H]3CCCO3)cc2)ccc2cc(CNC[C@H]3CCCO3)cnc12 | 92 to 94 °C |
| Cc1ccc(CN2CCSC2=O)cc1 | 49 to 50 °C |
| CCCNc1ccc(C=O)cc1[N+](=O)[O-] | 73.6 °C |
| CCOC(=O)CC1(CC)OCCc2c1[nH]c1c(C)cccc21 (centres undefined) | 77 to 78 °C |
| Cn1ncc(C(=O)N2CCC2)c1C(=O)Nc1ccn2nc(-c3ccnc(F)c3)nc2c1 | > 280 °C |
| CC1(C)CCC(C)(C)c2cc(-c3cc(-c4ccc(C(=O)O)cc4)ccc3OCCCCCC(=O)O)ccc21 | 245 °C |
| C=CCc1c(OCC(O)COc2ccc3c(=O)cc(C(=O)O)oc3c2CC=C)ccc(C(C)=O)c1O (centres undefined) | 105 °C |
| CCCCCCCCCCCCc1ccccc1C(SC(CC(=O)O)C(=O)O)C(=O)O (centres undefined) | 85 to 89 °C |
| CCOC(=O)c1ccc(OCC2CCCCC2)c([N+](=O)[O-])c1 | 79 to 80 °C |

| Structure (SMILES) | melting point |
| --- | --- |
| Cc1nc2cc3c(cc2c(=O)n1COC(=O)C(C)(C)C)C(Br)CC3 (centres undefined) | 98 °C |
| Cc1cc(C)c(N2CCCCC2)cc1NS(=O)(=O)C(F)(F)F | 92 to 94 °C |
| CC(C(=O)O)c1ccc(-c2ccc(O)cc2)cc1 (centres undefined) | 205 to 206 °C |
| CCOC(=O)NNc1cc(C)c(-c2cccc(C#N)c2)nn1 | 189 to 190 °C |
| CN(C)c1ccc(C(=N)NC=Cc2ccc([N+](=O)[O-])cc2)cc1 | 191 to 193 °C |
| CCCCCCC(C(=O)N[C@@H](CC(=O)O)C(=O)O)n1cnc2cc(-c3ccccc3-c3nn[nH]n3)ccc21 (some centres undefined) | 190 to 195 °C |
| Cc1oc2nc3c(c(N)c2c1C)C(=O)CCC3 | 190 to 198 °C |
| C=CC(=O)OC(C#N)Cc1cccc(Cl)c1 (centres undefined) | 100 to 101 °C |
| CCCS(=O)(=O)Nc1ccc(-c2ccc(C(=O)O)c(=O)[nH]2)cc1 | > 260 °C |
| O=C1CC(O)CC(/C=C/c2cccc(Cl)c2Cl)O1 (centres undefined) | 122 to 123 °C |
| O=C(CC1CCCCC1)Nc1c(Cl)ccc2nc(N3CCC[C@@H](O)C3)ccc12 | 209 to 214 °C |
| COCCN(C)S(=O)(=O)c1cc(-n2c(=O)cc(C(F)(F)F)n(C)c2=O)ccc1Cl | 108 to 110 °C |
| COc1ccc(S(=O)(=O)NCCc2ccc(CC(=O)O)cc2)cc1 | 160 to 162 °C |
| C=C(F)C(=O)Oc1c(Br)cc(C#N)cc1Br | 135 to 138 °C |
| COc1ccc(C(=O)Cc2c(Cl)cncc2Cl)c2c1OCCCO2 | 150 to 151 °C |
| CCCOC(=O)C1=C(N)NC(C)=C(C(=O)OC)C1c1cccc([N+](=O)[O-])c1 (centres undefined) | 155 °C |
| COc1ccc(-c2ccc(Cl)nn2)cc1Br | 226 to 228 °C |
| N#Cc1ccc2c(c1)C(n1ccccc1=O)=CC(CF)(CF)O2 | 174 to 175 °C |
| c1ccc2c(c1)CC(N1CCN(c3ccc4c(c3)OCCO4)CC1)C2 | 183 to 185 °C |
| N#Cc1c(CBr)c(C#N)c(CBr)c(C#N)c1CBr | 120 °C |
| Cc1c(C(=O)O)ccc(S(C)(=O)=O)c1-c1ccon1 | 150 to 151 °C |
| CCCC(=O)NCCc1c[nH]c2ccc(OCCN3CCCCC3)cc12 | 113 to 114 °C |
| COCCn1nc2c(N)nc3ccccc3c2c1CC(C)(C)O | 171 to 172 °C |

| Structure (SMILES) | melting point |
| --- | --- |
| Sc1n[nH]c(-n2cccn2)n1 | 245 to 247 °C |
| CCOC(=O)c1[nH]c2cc(Cl)c(Cl)cc2c1-c1ccc(Cl)cc1Cl | 160 to 161 °C |
| Nc1ccc(N2CCOCC2)c(C(=O)O)c1 | 307 to 308 °C |
| O=C(CC1CCCCC1)Nc1c(Cl)ccc2nc(N3CC[C@H](NCCc4nn[nH]n4)C3)ccc12 | 220 to 221 °C |
| CCCCCCCCn1nnc(C(C(=O)Nc2c(OC)cc(OC)cc2OC)c2ccccc2)n1 (centres undefined) | 113 to 116 °C |
| CC1(C)C(=O)N(CCCl)C(=O)N1CCCl | 77 to 79 °C |
| Cc1c(S(C)(=O)=O)cc(C(C)(C)C)c(O)c1C(=O)Nc1ccc(S(=O)(=O)C(F)(F)F)cc1Cl | 220 to 221 °C |
| O=C1c2cc(Cl)ccc2-n2cnc(-c3noc(CCl)n3)c2[C@@H]2CCN12 | 238 to 241 °C |
| NC(=O)[C@@H]1[C@H](Nc2c(Br)cnc3[nH]c(-c4cncnc4)nc23)[C@H]2C=C[C@@H]1C2 | > 300 °C |
| CCC(NS(=O)(=O)c1ccc(Cl)c(Cl)c1)c1cnc(Oc2ccc(F)cc2)n1CC (centres undefined) | 138 °C |
| COCC1CCCN1S(=O)(=O)c1ccc2c(c1)C(=O)C1=NCC3(CCCC3)CN12 (centres undefined) | 171 to 172 °C |
| CN1C(=O)C2CCCN2C(=O)c2ccccc21 (centres undefined) | 124 to 126 °C |
| CCCCCCCCCCCCOC(=O)c1ccc(O)c(N)c1 | 86 to 89 °C |
| O=C(O)COCOc1cc(Cl)cc(Cl)c1 | 79 to 82 °C |
| CCP1(=O)c2ccccc2CN1c1ccccc1 (centres undefined) | 116 to 120 °C |
| Cc1cc(-c2c(F)cc3c(=O)c(C(=O)O)cn4c3c2OC[C@@H]4C)cc(C)n1 | 305 to 308 °C |
| COc1cc(C(=O)O)ccc1Cc1cn(CCC(N)=O)c2ccc(C(=O)NCC3CCCC3)cc12 | 129 to 131 °C |
| COc1cc(Br)c(C(C)=NOCc2ccc([N+](=O)[O-])cc2)cc1O | 137 to 138 °C |
| CCCn1c(=O)c2[nH]c(C34CC5CC(CC(C5)C3)C4)nc2n(CCC)c1=O | 169 to 171 °C |
| C=CCS(=O)(=O)c1ccc(N2CC=C(c3ccc(Cl)c(Cl)c3)N2)cc1 | 198 °C |
| CCc1cc(C(C)=O)c(O)cc1OCc1cccc(C(=O)O)c1 | 161 to 164 °C |
| CCn1cc(-c2ccc3c(c2)c(C2CCN(CCN4CCNC4=O)CC2)cn3-c2ccc(F)cc2)nn1 | 132 to 134 °C |

Second part, the compound after the results:

| melting point | Structure (SMILES) |
| --- | --- |
| 60 °C | COC(=O)Cc1ccc(OCCNC(=O)C2Cc3ccccc3N2S(=O)(=O)c2ccc(-c3cccc(C(F)(F)F)c3)c(C)c2)cc1 (centres undefined) |
| 168 to 173 °C | CCN(CC)c1ccc(-c2nc3ccc(OC(F)(F)F)cc3[nH]2)cc1 |
| 246 to 250 °C | Cc1cc(-c2ccccc2)n2nc(N)nc2n1 |
| 134 to 138 °C | N#Cc1ccccc1Nc1ccccc1[N+](=O)[O-] |
| 157 to 158 °C | Nc1ccc(Oc2ccccc2-c2ccccc2Oc2ccc(N)cc2)cc1 |
| 87 to 92 °C | CC(C)n1nc(-c2c(OCC(=O)NC3CC3)nc(N)nc2-c2ccccc2)ccc1=O |
| 246 to 248 °C | CS(=O)(=O)Cc1cccc(CNC(=O)c2nc3scc(COCc4ccc(C(=O)O)cc4)c3c(=O)[nH]2)c1 |
| 156 to 158 °C | COc1ccc2cc(C3CCN(C[C@H](O)COc4cccc5oc(-c6nnc(C)o6)cc45)CC3)ccc2c1 |
| 254 °C | COCOc1cc(F)ccc1-c1cc(-c2cccc(C(=O)O)c2)c(C#N)c(NC(=O)c2ccco2)n1 |
| 124 to 125 °C | Cc1nc(C(F)(F)F)ccc1C(=O)C1=C(Sc2ccccc2)CCCC1=O |
| 218 to 220 °C | CC(C)n1nc(-c2c(-c3ccccc3)nn3ccc(Oc4ccncc4)cc23)ccc1=O |
| 113 to 116 °C | NCc1c(Nc2ccccc2)cccc1Oc1ccccc1 |
| 128 to 130 °C | N[C@H](Cc1cccc(OC(F)(F)C(F)F)c1)[C@@H](O)c1csc(-c2ccccc2)n1 (racemic) |
| 104 to 106 °C | COc1ccc(Br)c(C(Cl)=NNS(=O)(=O)c2ccccc2)c1 |
| 81 to 86 °C | CC(=O)Nc1ccn(C2OC(CO[Si](c3ccccc3)(c3ccccc3)C(C)(C)C)CC2F)c(=O)n1 (centres undefined) |
| 146 to 147 °C | CCS(=O)c1cc2c(c3c1OC(C)(C)C3)C(c1ccccc1)=NC(C)(C)C2 (centres undefined) |

| melting point | Structure (SMILES) |
| --- | --- |
| 184 °C | FC(F)(F)c1nnc(-c2ccc(Cl)cc2)n1-c1ccc(Cl)cc1 |
| 175 to 177 °C | Cc1ccc(NC(=O)c2ccc(CN3CCCCC3)c(C(F)(F)F)c2)cc1-c1ccc2cnncc2c1 |
| 193 to 194 °C | COc1ccc(C(NCC(c2ccccc2)c2ccccc2)c2cccc(Nc3c(N)c(=O)c3=O)c2)cc1 (centres undefined) |
| 148 to 149 °C | O=C(ON=C1C(=O)c2ccccc2-c2ccccc21)c1ccccc1 |
| 230 °C | O=Cc1ccc2c3cccc4cccc(c5cccc1c52)c43 |
| 98 to 100 °C | Cc1nc(-c2ccc(C(F)(F)F)cc2)oc1COc1ccc(CCC(=O)O)cc1 |
| 224 °C | O=C(O)CN(C(=O)CN1C(=O)c2ccccc2C1=O)c1ccccc1 |
| 147 °C | O=C(COc1ccccc1)N[C@@H](Cc1ccc([N+](=O)[O-])cc1)C(=O)O |
| 126 to 127 °C | CCOC(=O)c1cc2c3ccccc3n(Cc3ccccc3)c2cn1 |
| 226 to 228 °C | CN1CCN(c2ccnc3c(NC(=O)c4ccccc4[N+](=O)[O-])cccc23)C1=O |
| 131 to 132 °C | COc1cc(CON=C(CCC(=O)O)c2ccccc2)ccc1OCc1nc(-c2ccco2)oc1C |
| 190 to 192 °C | CCOC(=O)NN=Cc1nc(Cc2ccccc2)[nH]c1C |
| 296 °C | O=C1Nc2ccc(I)cc2C1=NNC(=O)c1ccc(Oc2ccccc2)cc1 |
| 144 to 146 °C | COC(=O)c1ccccc1Nc1c(OC)ccc2ccccc12 |
| 120 to 124 °C | Cc1cc(C)cc(C(O)(CCc2cncn2Cc2ccccc2)c2cc(C)cc(C)c2)c1 |
